In publication PMC11253624, “Unsaturated fatty acid perturbation combats emerging triazole antifungal resistance in the human fungal pathogen Aspergillus fumigatus” (mBio, 2024):
≈ marks a conversion by molar mass, not a printed value. Read-outs that look alike come from different tables or passages of the source.

Tests used:
[1] = test system: HeLa cells (ATCC CCL-2); experiment: Mammalian cell cytotoxicity (CC50); format: cell-based
Protocol: (§1) The half-maximal cytotoxic concentration (CC50) of each compound against HeLa cells (ATCC CCL-2) was measured as previously described ([50]). Each assay comprised three technical replicates, and each assay was repeated at least once. The mean values for each biological replicate were averaged, and the CC50 was determined using a four-parameter nonlinear curve fitting algorithm (GraphPad Prism). The average of the CC50s from two biological replicates was calculated and reported.

[2] = Mammalian cell cytotoxicity (CC50); format: cell-based; conditions: human, HeLa cells (ATCC CCL-2)
Protocol: as §1

[3] = test system: Cryptococcus neoformans; experiment: FIC checkerboard assay MBX-7591 and oleic acid, C. neoformans; format: cell-based; conditions: H99, MBX-7591 + 31.25 μg/ml OA
Protocol: Single-treatment controls were completed with 50 µL of media to substitute the volume of the other compound. […] Additional untreated and media-only controls were added to the plate as described above. Incubation of the plates and MIC assessments (individual and in combination) were performed as described above. FIC calculations were done according to the established formula: ∑FIC=MIC combination compound A/MIC individual compound A + MIC combination compound B/MIC individual compound B . Synergy was considered equal or lower than 0.5, and antagonism was considered to be higher than 2. FIC scores reported represent between three and five biological replicates. All antifungal susceptibility testing was done in 96-well plates using RPMI 1640 media buffered with 165 mM of MOPS and pH 7 using NaOH. CLSI-based microbroth dilution assays were done in accordance with M27 ([49]). […] Additionally, an untreated control (100 µL of a stock of 2 × 10^3 spores/mL and 100 µL of media) and a media-only control (200 µL media) were included in the plate. The plate was covered in a Breathe-Eazy membrane to allow for uniform oxygen diffusion throughout the plate and incubated for 24 hours at 35°C (Candida spp.) or 72 hours at 35°C ± 5% CO2 (Cryptococcus neoformans).

[4] = test system: Fusarium spp.; experiment: CLSI-based microbroth dilution MIC, spectrum of activity; format: cell-based; conditions: solani and oxysporum
[5] = test system: P. variotii; experiment: microbe, parasite or virus in culture; format: cell-based; conditions: Paecilomyces variotii; strain MYA-3630
[6] = test system: Scedosporium spp.; experiment: CLSI-based microbroth dilution MIC, spectrum of activity; format: cell-based
[7] = test system: Coccidioides spp.; experiment: microbe, parasite or virus in culture; format: cell-based
[8] = test system: Aspergillus fumigatus; experiment: Agar-based colony biofilm assay; format: cell-based; conditions: for inhibition at 0.58 µg/mL / inhibition at 1.16 µg/mL: Aspergillus fumigatus; for growth of parental wild-type strain in the presence of MBX-7591 (of untreated): concentration not given
[9] = test system: Candida albicans; experiment: CLSI-based microbroth dilution MIC for yeast; format: cell-based
[10] = Caco-2 permeability; format: in vitro ADME; conditions: human
[11] = test system: Aspergillus fumigatus; experiment: CLSI-based microbroth dilution MIC, A. fumigatus strains
[12] = test system: Aspergillus nidulans; experiment: microbe, parasite or virus in culture; format: cell-based; conditions: strain FGSC A4
[13] = test system: Aspergillus terreus; experiment: microbe, parasite or virus in culture; format: cell-based; conditions: strain AT1
[14] = test system: Aspergillus flavus; experiment: CLSI-based microbroth dilution MIC, spectrum of activity; format: cell-based; conditions: for MIC: Aspergillus flavus
[15] = test system: A. fumigatus strain ATCC46645; experiment: Murine model of invasive pulmonary aspergillosis; format: in vivo, mouse
Protocol: Outbred wild-type CD-1 female mice at 20–24 g (Charles River Laboratory, Raleigh, NC, USA) were randomized and housed in autoclaved cages at ≤4 mice per cage with HEPA-filtered air and water. Mice were immunosuppressed by subcutaneous injection with triamcinolone acetonide (Kenalong-10, Bristol-Myer Squibb) at 40 mg/kg of body weight. Twenty-four hours after immune suppression, mice were intranasally inoculated with 2 × 10^6 live conidia (in 40 µL of sterile PBS) or PBS alone as a control. A. fumigatus strain ATCC46645 was grown on 1% GMM for 3 days at 37°C, conidia were collected in 0.01% Tween, and washed three times in sterile PBS. Immediately after fungal inoculation, mice were intraperitoneally (IP) injected with either vehicle (5% DMSO/10% PS80/25% HPBCDX 0.07% sodium acetate) or MBX-7591 at 10 mg/kg of body weight (5% DMSO/10% PS80/25% HPBCDX 0.07% sodium acetate). Mice were injected IP with a second dose of vehicle or MBX-7591 at 10 mg/kg of body weight 8 hours after the first dose of the drug. Mice were sacrificed 24 hours post-fungal challenge, lungs were excised from the chest cavity, rinsed in sterile PBS, and flash frozen for fungal burden analysis. Relative fungal burden was assessed through qPCR quantitation of A. fumigatus 18S rDNA as previously described ([38][–][40]).

O=C(c1ccsc1)N1CCC(Cc2ccc(COc3ccncc3)cc2)CC1 [MBX-7591]
CC50 [1]: ≥ 100 µM
CC50 [2]: > 100 µM
FIC value [3]: > 4
MIC [4]: > 39.2 mg/L
MIC ([4]; read-out: MIC UTHSC): > 32 mg/L
MIC [5]: > 32 mg/L
MIC ([6]; NIH: DI19-67, DI15-15, DI19-66, read-out: MIC UTHSC): > 32 mg/L
MIC ([6]; apiospermum (7D7), prolificans (7D8), JI 2018 "typical" (14E6)): > 39.2 mg/L
MIC ([7]; read-out: MIC UTHSC, strain DI14-269): > 32 mg/L
MIC ([7]; read-out: MIC UTHSC, strain DI14-284): 8 mg/L (≈ 20.4 µM)
MIC ([7]; read-out: MIC UTHSC, strain DI17-143): > 32 mg/L
inhibition at 0.58 µg/mL ([8]; AFS35, 0.58 μg/mL, read-out: growth inhibition): ~61%
inhibition at 1.16 µg/mL ([8]; AFS35, 1.16 μg/mL, read-out: growth inhibition): ~70%
inhibition at 0.58 µg/mL ([8]; phspA:atrR, 0.58 μg/mL, read-out: growth inhibition): ~9%
inhibition at 1.16 µg/mL ([8]; phspA:atrR, 1.16 μg/mL, read-out: growth inhibition): ~19%
inhibition at 1.16 µg/mL ([8]; read-out: growth inhibition, hspA-atrR;ΔsrbA, 1.16 µg/mL): ~81%
inhibition at 0.58 µg/mL ([8]; read-out: growth inhibition, ΔatrR, 0.58 μg/mL): ~69%
inhibition at 1.16 µg/mL ([8]; read-out: growth inhibition, ΔatrR, 1.16 μg/mL): ~86%
inhibition at 0.58 µg/mL ([8]; read-out: growth inhibition, ΔsrbA, 0.58 μg/mL): ~62%
inhibition at 1.16 µg/mL ([8]; read-out: growth inhibition, ΔsrbA, 1.16 μg/mL): ~72%
inhibition at 1.16 µg/mL ([8]; read-out: growth inhibition, ΔsrbAΔatrR, 1.16 µg/mL): ~92%
growth of parental wild-type strain in the presence of MBX-7591 (of untreated) ([8]; first of two values): ~ 67%
growth of parental wild-type strain in the presence of MBX-7591 (of untreated) ([8]; second of two values): ~ 89%
MIC ([9]; strain SC5314): > 39.2 mg/L
MIC ([9]; strain SC5314, read-out: MIC UTHSC): > 32 mg/L
efflux ratio [10]: 0.49
Papp A→B ([10]; A→B, method b66 gives Papp in cm/s): 110 nm/s
Papp B→A ([10]; B→A, method b66 gives Papp in cm/s): 56 nm/s
effect of CO2 levels on A. fumigatus susceptibility [11]: not impacted by CO2 levels
MIC ([11]; Aspergillus fumigatus, read-out: MIC (activity against various A. fumigatus strains)): ~2 mg/L (≈ 5.1 µM)
MIC [12]: > 39.2 mg/L
MIC [13]: > 32 mg/L
MIC ([14]; ATCC204304, strain ATCC 204304): > 32 mg/L
MIC ([14]; strain Aflav1): > 32 mg/L
MIC UTHSC ([14]; strain Aflav2): > 32 mg/L
host toxicity in the IPA murine model ([15]; 10 mg/kg IP, two doses): no host-associated toxicity
lung fungal burden vs vehicle control (18S rDNA qPCR) ([15]; CD-1 mice, triamcinolone immunosuppressed, 10 mg/kg IP at 0 and 8 hours, lungs at 24 hours): over threefold decrease in fungal burden
